Test results taken from patent US20080050755A1, “Method for screening for chemotherapeutic treatments for cancer” (priority 2000, published 2008).

Tested on: Tcf/Lef reporter activity (endogenous β-catenin) in 293T cells
Assay: Tcf/Lef reporter assay (pTOPFLASH/pFOPFLASH) in adriamycin-treated 293T cells
Assay type: cell-based
Details: 293T cells treated with 1 µg/ml adriamycin 8 hours after transfection for 16 hours; FIG. 6E
Source text: FIGS. 6A, 6B, 6C, and 6E illustrate that Siah-1 mediates p53-induced degradation of β-catenin. […] 293T cells were transiently co-transfected with an internal control (pEGFP) and the indicated plasmids. The amount of DNA in each transfection was kept constant by the addition of an appropriate amount of empty expression vector. Whole cell lysates were subjected to Western analysis. Blots were probed with mouse monoclonal antibodies to the Myc epitope tag (upper panel) and GFP (lower panel). FIG. 6C illustrate the pulse-chase analysis of ectopically expressed Myc-tagged β-catenin. […] Immunoprecipitated Myc-β-catenin was subjected to SDS-PAGE and dried gels were analyzed with a PhosphorImager. […]
Cell culture, transfection, reporter assay, co-immunoprecipitation and immmunoblotting. […] Luciferase and β-galactosidase activity was measured 24 hours after transfecton. Tcf/Lef reporter activity was determined as described. […] The whole cell extract (WCE) was immunoprecipitated using a mouse monoclonal antibody specific for the amino-terminus of pAPC (Ab-5, Oncogene Research) or a control mouse IgG, and associated Myc-Siah-1 protein was detected by immunoblotting using an anti-Myc monoclonal antibody (9E10). The pAPC in WCE (20 µg) and immunoprecipitates was detected using an anti-APC mouse monoclonal antibody (Ab-1, Oncogene Research). […]

Question: Which “Tcf/Lef reporter activity (TOP/FOP)” value does the source give for `COc1cccc2c1C(=O)c1c(O)c3c(c(O)c1C2=O)C[C@@](O)(C(=O)CO)C[C@@H]3O[C@H]1C[C@H](N)[C@H](O)[C@H](C)O1` [adriamycin] here?
Answer: decreased Tcf/Lef reporter activity
